Data reported in EP2030621A1, “Novel substituted pyrimidines as cysteine protease inhibitors” (GLAXO GROUP LIMITED, priority 2007, dated 2009).
pIC50: −log10 of the molar value. Structures can show the parent of a compound that is named as a salt.

system: Plasmodium falciparum parasite; assay: Whole cell assay: whole cell activity against the parasite; format: cell-based; settings: Plasmodium falciparum
Source text: Compounds can be evaluated for whole cell actvity against the Plasmadium falciparum parasite according to the procedure described in Sijwali S. and Rosenthal P. J., (2004) Proceedings of the National Academy of Sciences of the United States of America (PNAS) 101(13), 4384-4389 (see in particular "Measurement of Parasite Growth rates and Inhibitor Sensitivity" on page 4385); IC50 values can be calculated as described in Singh A. and Rosenthal P. J., (2001) Antimicrobial Agents and Chemotherapy 45(3), 949-951 (see in particular page 950, first column); synchronised parasites can be prepared as described in Divo A. A. et al., (1985) Protozool. 32, 59-64. 3) In vitro models to evaluate activity against bone metastasis

Row | SMILES | pIC50
1 | CN1CCN(Cc2ccc(C(=O)NN(CC(C)(C)C)c3nc(C#N)ncc3Br)cc2)CC1 [comparative Example 39, N'-(5-bromo-2-cyano-4-pyrimidinyl)-N'-(2,2-dimethylpropyl)-4-[(4-methyl-1-piperazinyl)methyl]benzohydrazide trifluoroacetate, reference compound] | < 6.40
2 | CCCN1CCN(c2ccc(C(=O)NN(c3nc(C#N)ncc3Br)C3CCCCC3)cc2)CC1 [Example 80, N'-(5-bromo-2-cyano-4-pyrimidinyl)-N'-cyclohexyl-4-(4-propyl-1-piperazinyl)benzohydrazide trifluoroacetate] | 6.82 to 7.82
3 | CN(CCO)Cc1ccc(C(=O)NN(c2nc(C#N)ncc2Cl)C2CCCC2)cc1 [Example 58, N'-(5-chloro-2-cyano-4-pyrimidinyl)-N'-cyclopentyl-4-{[(2-hydroxyethy)(methyl)amino]methyl}benzohydrazide trifluoroacetate] | 6.82 to 7.82
4 | CN1CCN(C2CCN(Cc3ccc(C(=O)NN(c4nc(C#N)ncc4Br)C4CCN(C(=O)OCc5ccccc5)CC4)cc3)CC2)CC1 [Example 48, Phenylmethyl 4-{1-(5-bromo-2-cyano-4-pyrimidinyl)-2-[(4-{[4-(4-methyl-1-piperazinyl)-1-piperidinyl]methyl}phenyl)carbonyl]hydrazino}-1-piperidinecarboxylate triflouroacetate] | 6.82 to 7.82
5 | N#Cc1ncc(Br)c(N(NC(=O)c2ccc(CN3CC(N4CCCC4)C3)cc2)C2CCOCC2)n1 [Example 33, N'-(5-bromo-2-cyano-4-pyrimidinyl)-4-{[3-(1-pyrrolidinyl)-1-azetidinyl]methyl}-N'-(tetrahydro-2H-pyran-4-yl)benzohydrazide trifluoroacetate] | 6.82 to 7.82

The remaining lines, values ahead:

Row | pIC50 | SMILES
6 | 6.82 to 7.82 | CN(CC(=O)N(C)C)Cc1ccc(C(=O)NN(c2nc(C#N)ncc2Cl)C2CCCC2)cc1 [Example 60, N^2-[(4-{[2-(5-chloro-2-cyano-4-pyrimidinyl)-2-cyclopentylhydrazino]carbonyl}phenyl)methyl]-N^1,N^1,N^2-trimethylglycinamide trifluoroacetate]
7 | 7.82 to 8.60 | CN1CCC(CN2CCN(Cc3cccc(C(=O)NN(c4nc(C#N)ncc4Br)C4CCCCC4)c3)CC2)CC1 [Example 28, N'-(5-bromo-2-cyano-4-pyrimidinyl)-N'-cyclohexyl-3-({4-[(1-methyl-4-piperidinyl)methyl]-1-piperazinyl}methyl)benzohydrazide trifluoroacetate]
8 | 6.82 to 7.82 | CN1CCN(C(=O)C2CCN(Cc3ccc(C(=O)NN(c4nc(C#N)ncc4Br)C4CCOCC4)cc3)CC2)CC1 [Example 32, N'-(5-Bromo-2-cyano-4-pyrimidinyl)-4-({4-[(4-methyl-1-piperazinyl)carbonyl]-1-piperidinyl}methyl)-N'-(tetrahydro-2H-pyran-4-yl)benzohydrazide trifluoroacetate]
9 | 7.82 to 8.60 | CN1CCN(C(=O)C2CCN(Cc3cccc(C(=O)NN(c4nc(C#N)ncc4Br)C4CCCC4)c3)CC2)CC1 [Example 12, N'-(5-bromo-2-cyano-4-pyrimidinyl)-N'-cyclopentyl-3-({4-[(4-methyl-1-piperazinyl)carbonyl]-1-piperidinyl}methyl)benzohydrazide trifluoroacetate]
10 | 7.82 to 8.60 | CN1CCN(C2CCN(Cc3ccc(C(=O)NN(c4nc(C#N)ncc4Br)C4CCCC4)cc3)CC2)CC1 [Example 10, N'-(5-bromo-2-cyano-4-pyrimidinyl)-N'-cyclopentyl-4-{[4-(4-methyl-1-piperazinyl)-piperidinyl]methyl}benzohydrazide trifluoroacetate]
11 | 7.82 to 8.60 | CN1CCN(Cc2cccc(-c3cncc(C(=O)NN(c4nc(C#N)ncc4Br)C4CCCCC4)c3)c2)CC1 [Example 47, N'-(5-bromo-2-cyano-4-pyrimidinyl)-N'-cyclohexyl-5-{3-[(4-methyl-1-piperazinyl)methyl]phenyl}-3-pyridinecarbohydrazide trifluoroacetate]
